The test system of test [1] is laser-induced angiogenesis. The test can be described thus: Fundus fluorescein angiography (FFA) of laser-induced choroidal neovascularization in mice, vitreous injection. As to conditions: for angiogenesis index (relative average fluorescence leakage ratio vs Day 0): vitreous injection, mean±S.E.M.; for FFA quantified values, difference to other groups: Eylea 40 μg/eye/μL, p<0.01 (FIG. 2D). It is filed as in vivo, C57BL/6 mice. The method, then: (§1) Beauvericin (BEA), named GYT088 in this trail, was supplied by Shiyuantang Biotechnology Co. 5 mg of BEA (molecular weight 783.96) was dissolved in DMSO at a stock concentration of 50 mM, and then diluted to 100 μM with saline. Before injection, the sample was diluted to 1.6, 3.2, and 6.4 μM in saline, and then administered to the low, medium, and high-dose groups, which were equivalent to 1.28, 2.56, and 5.12 ng/eye, respectively, based on a vitreous volume of 4 μl in mice (wherein the injection volume is 1 μl); converted to the human doses of 1.28, 2.56, 5.12 μg/eye as the low, medium and high dose levels, respectively, based on a vitreous volume of 4-4.5 ml in human.
(§2) Male C57BL/6 mice from BioLASCO Taiwan CO., Ltd. at 7-8 weeks of age, with an average body weight of 17-20 g, were used in this study. The mice were housed in the Animal Room of the National Taipei Medical University for more than 5 days before the start of the experiment. The incubation temperature was set at 23±1° C., the humidity was set at 39˜43%, and the automated light control system maintained 12 hours of light and 12 hours of darkness. The feed was Rodent diet 5001 (Purina, MO, USA) and drinking water was supplied indefinitely.
(§3) After the adaptation period, the retina was cauterized with laser light (day 0), and the degree of retinal damage was confirmed by fundus photography (FP), fluorescein fundus angiography (FFA), and frequency-domain optical […] (SD-OCT) on the same day (FIG. 1). The mice were randomly divided into five groups and given vitreous injections of the corresponding drugs, including (1) control group, (2) positive control group: Eylea (40 μg/eye/μL), (3-5) GYT088 treatment groups at low-dose (1.28 ng/eye), medium-dose (2.56 ng/eye), and high-dose ([…]). Five mice in each group were clinically observed daily, and retinal injury repair was examined at Day 7 and Day 14.
Mice were deeply anesthetized and pupils were dilated. A Micron III retinal imaging microscope (Phoenix, San Ramon, CA, USA) was used to adjust the focal length, and the central socket of the mice was placed in the center of the fundus lens to capture fundus photography (FP), and then 10% sodium fluorescein solution was injected intraperitoneally, and retinal angiography was performed with a 520 nm filter to capture continuous images for analysis. After the administration of drugs, the FP, FFA, and SD-OCT results were observed once a week at Day 0 and recorded until Day 14. Sharp images were selected for analysis and imported into […] using ImageJ, and the software automatically quantified the pixel value and area of the fundus region by removing the background values. Due to differences in individual retinal structures, post-laser wound healing varies and overexposure of signals in the area may occur. If fluorescence leakage occurs outside of the location of direct laser damage, it is considered to be a phenomenon of fundus neovascularization. Therefore, the quantification was performed by randomly selecting three fixed areas of the fluorescence leakage area that were not laser-damaged areas.

The test system of test [2] is retinal sublayer structure. The test can be described thus: SD-OCT damage score of the retinal sublayer structure after laser injury in mice, vitreous injection. Type of test: in vivo, C57BL/6 mice. The note with it: for SD-OCT quantified values, difference to other groups: p<0.01 (FIG. 3D). The method, then: as §1, §2, §3
The OCT (Phoenix Research Laboratories, San Ramon, CA) imaging system used in this experiment is based on the principle of frequency-domain optical homodyne tomography. The computerized tomography (CT) scan was divided into three layers: the first layer was from the nerve fiber layer (NFL) to the inner nuclear layer (INL), the second layer was from the INL to the inner segment/outer segment (IS/OS), and the third layer was from the IS/OS to the retinal pigment epithelium (RPE). The damage was scored according to the retinal sublayer structure in a double-blind trail, and the mean value of the scores was taken as the index value of the damage after each score was made by 3 persons.

Two molecules from patent US20240316144A1, “PHARMACEUTICAL COMPOSITION AND METHOD FOR INHIBITING ANGIOGENESIS” (ZIH YUAN TANG Biotechnology Co, Ltd., priority 2023, published 2024) can be followed below.

`CC(C)[C@H]1OC(=O)[C@H](Cc2ccccc2)N(C)C(=O)[C@@H](C(C)C)OC(=O)[C@H](Cc2ccccc2)N(C)C(=O)[C@@H](C(C)C)OC(=O)[C@H](Cc2ccccc2)N(C)C1=O` [GYT088, beauvericin]: the “angiogenesis index (relative average fluorescence leakage ratio vs Day 0)” value in test [1] (Day 7, high-dose 5.12 ng/eye, p<0.05) was 1.53±0.17 times; in test [1] (Day 7, low-dose 1.28 ng/eye), 1.92±0.21 times; in test [1] (Day 7, medium-dose 2.56 ng/eye), 1.59±0.22 times; in test [1] (Day 14, high-dose 5.12 ng/eye, p<0.01) it was 1.63±0.16 times; in test [1] (Day 14, low-dose 1.28 ng/eye), 2.46±0.18 times; in test [1] (Day 14, medium-dose 2.56 ng/eye, p<0.01), 1.79±0.17 times. In addition, the “damage score compared with control group” value in test [2] (Day 14, high-dose 5.12 ng/eye, vitreous injection) is given as “significantly lower than control group”. The “SD-OCT quantified values, difference to other groups” value in test [2] (Day 14, low-dose 1.28 ng/eye) is “significant difference”; in test [2] (Day 14, mid-dose 2.56 ng/eye) it was “significant difference”.
As for “Eylea: positive control group: Eylea (40 μg/eye/μL), vitreous injection [reference compound]”, the “FFA quantified values, difference to other groups” value in test [1] (Day 7) and in test [1] (Day 14) was “significant difference” throughout. Besides, the “damage score (scale 0-4)” value in test [2] (Day 7, Eylea 40 μg/eye/μL, vitreous injection, control 1.38±0.17) is 0.80±0.13. Further, the “SD-OCT quantified values, difference to other groups” value in test [2] (Day 14, Eylea 40 μg/eye/μL) was “significant difference”.
